# Measurements from PubChem BioAssay (NCI).
#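 Tested at 5 concentrations; 48 h exposure; 96-well plates; endpoints linearly interpolated, else capped at highest concentration. GI50 = concentration required for 50% inhibition of growth. At the TGI there is no net growth.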
# How the values were obtained:
# Assay in all cases: NCI tumour cell line growth inhibition, 48 h
# [1] = system: DMS 114 small cell lung
# [2] = system: DLD-1 colon
# [3] = system: M19-MEL melanoma
# [4] = system: SNB-78 CNS
# [5] = system: LXFL 529 NSCLC
# [6] = system: KM20L2 colon
# [7] = system: RXF-631 renal
# [8] = system: P388 leukemia
# [9] = system: SN12K1 renal
# [10] = system: DMS 273 small cell lung
# [11] = system: P388/ADR leukemia
Structure (SMILES),TGI [1],TGI [2],TGI [3],TGI [4],TGI [5],TGI [6],TGI [7],TGI [8],TGI [9],TGI [10],TGI [11],GI50 [11],GI50 [8],GI50 [2],GI50 [3],GI50 [9],GI50 [4],GI50 [6],GI50 [10]
Nc1ccc(-c2nc3ccccc3s2)cc1,39.1 µM,77.3 µM,> 100 µM,98.2 µM,33.4 µM,> 100 µM,46.2 µM,,,,,,,,,,,,
C=C1CC(OC)(C(O)C(=O)N[C@H]2OCO[C@H]3C2O[C@H](C[C@H](O)COC)C(C)(C)C3OC)O[C@H](C)[C@@H]1C (stereo partly drawn),> 0.00772 µM,,> 0.00772 µM,> 0.00772 µM,,> 0.00772 µM,,> 0.00772 µM,> 0.00772 µM,,,,,,,,,,
CC(=O)Nc1ccc(/C=C(\NC(=O)c2ccccc2)C(=O)NNS(=O)(=O)c2ccc(C)cc2)cc1,,> 100 µM,> 100 µM,> 100 µM,> 100 µM,> 100 µM,,,,34.8 µM,,,,,,,,,
CCOC(=O)C[n+]1ccc2c([nH]c3cc(OC)ccc32)c1C,> 100 µM,> 100 µM,> 100 µM,> 100 µM,,> 100 µM,,> 100 µM,> 100 µM,> 100 µM,> 100 µM,,,,,,,,
COc1ccc(N2C(=O)C(N3C(=O)C=CC3=O)C2C=O)cc1 (stereo not drawn),,> 100 µM,> 100 µM,> 100 µM,> 100 µM,> 100 µM,,,,> 100 µM,,,,,,,,,
O=C1OC2C=CC1C1(CCOC1=O)C2 (stereo not drawn),> 100 µM,> 100 µM,> 100 µM,,> 100 µM,> 100 µM,,,,> 100 µM,,,,,,,,,
CC(=O)[C@H]1CCC2[C@@H]3CC=C4C(O)C(OS(=O)(=O)O)CC[C@]4(C)C3CC[C@@]21C (stereo partly drawn),> 100 µM,> 100 µM,> 100 µM,> 100 µM,,> 100 µM,,> 100 µM,> 100 µM,> 100 µM,> 100 µM,,,,,,,,
CN(CCN(C)C(=O)CCn1ccc(=O)[nH]c1=O)C(=O)CCn1ccc(=O)[nH]c1=O,> 100 µM,,> 100 µM,> 100 µM,> 100 µM,> 100 µM,,,,> 100 µM,,,,,,,,,
CC1OC=CC(=O)C1O (stereo not drawn),,> 100 µM,> 100 µM,> 100 µM,> 100 µM,> 100 µM,,,,,,,,,,,,,
NC1CCCCC1N.O=S(=O)([O-])CCCN1CCN(CCO)CC1.O=S(=O)([O-])CCCN1CCN(CCO)CC1.[Pt+4],,> 100 µM,16.2 µM,> 86.4 µM,,> 100 µM,,> 32 µM,> 100 µM,19.9 µM,> 47.7 µM,2.56 µM,0.129 µM,8.44 µM,1.18 µM,3.29 µM,15.8 µM,6.59 µM,1.24 µM
CC(=O)O[C@H]1C(=O)[C@@]2(C)C(C(OC(=O)c3ccccc3)[C@]3(O)CC(OC(=O)C(O)C(NC(=O)c4ccccc4)c4ccc(C)cc4)C(C)=C1C3(C)C)[C@]1(OC(C)=O)CO[C@@H]1C[C@@H]2O (stereo partly drawn),0.168 µM,> 25 µM,3.57 µM,> 25 µM,11.1 µM,0.0981 µM,,,,2.89 µM,,,,,,,,,
